Measurements reported in US9101133B2, “Phenyl-substituted bicyclooctane-1,3-dione-derivatives” (BAYER INTELLECTUAL PROPERTY GMBH, priority 2010, dated 2015).

Columns and labels:
Type in all cases: in vivo
SETVI = assay: Herbicidal post-emergence action; conditions: visual assessment after about three weeks, 100% = plants have died; for herbicidal effect in percent, SETVI: 80 g/ha; for pest or weed control at 80 g/ha: 504 h, read-out: herbicidal effect in percent, SETVI
Procedure: (§1) 2. Herbicidal Post-Emergence Action
(§2) • Seeds of monocotylidonous and dicotylidonous weed and crop plants are placed in sandy loam in wood fibre pots, covered with soil and cultivated in a greenhouse under good growth conditions. Two to three weeks after sowing, the test plants are treated at the one-leaf stage. The test compounds, formulated as wettable powders (WP), are then with a water application rate of 600 l/ha (converted), with 0.2% of wetting agent added, sprayed onto the green parts of the plants in different amounts. After the test plants have been kept in the greenhouse under optimum growth conditions for about three weeks, the effect of the preparations is assessed visually in comparison to untreated controls (herbicidal effect in percent: 100% effect=the plants have died, 0% effect=like control plants). Post-Emergence, 80 g/ha

LOLMU = assay: Herbicidal post-emergence action; conditions: 80 g/ha, visual assessment after about three weeks, 100% = plants have died
Procedure: as §1, §2

ECHCG = assay: Herbicidal post-emergence action; conditions: 80 g/ha, visual assessment after about three weeks, 100% = plants have died
Procedure: as §1, §2

AVEFA = assay: Herbicidal post-emergence action; conditions: 80 g/ha, visual assessment after about three weeks, 100% = plants have died
Procedure: as §1, §2

ALOMY = assay: Herbicidal post-emergence action; conditions: 80 g/ha, visual assessment after about three weeks, 100% = plants have died
Procedure: as §1, §2

[1] = tested on: monocotylidonous and dicotylidonous weed and crop plants; assay: Herbicidal pre-emergence action; conditions: 320 g/ha, visual assessment after three weeks, 100% = plants have died; for herbicidal effect in percent, ALOMY: ALOMY = Alopecurus myosuroides; for herbicidal effect in percent, AVEFA: AVEFA = Avena fatua; for herbicidal effect in percent, ECHCG: ECHCG = Echinochloa crus-galli; for herbicidal effect in percent, LOLMU: LOLMU = Lolium multiflorum; for herbicidal effect in percent, SETVI: SETVI = Setaria viridis
Excerpt: 1. Herbicidal Pre-Emergence Action
• Seeds of monocotylidonous and dicotylidonous weed and crop plants are placed in sandy loam in wood fibre pots and covered with soil. The test compounds, formulated in the form of wettable powders (WP), are then, as an aqueous suspension with a water application rate of 600 l/ha (converted), with 0.2% of wetting agent added, applied to the surface of the covering soil in different amounts. • After the treatment, the pots are placed in a greenhouse and kept under good growth conditions for the test plants. The visual assessment of the emergence damage on the test plants is carried out after a trial period of three weeks by comparison with the untreated controls (herbicidal effect in percent: 100% effect=the plants have died, 0% effect=like control plants).

Compound	herbicidal effect in percent, SETVI (SETVI) [%]	herbicidal effect in percent, LOLMU (LOLMU) [%]	herbicidal effect in percent, ECHCG (ECHCG) [%]	herbicidal effect in percent, AVEFA (AVEFA) [%]	herbicidal effect in percent, ALOMY (ALOMY) [%]	herbicidal effect in percent, ALOMY [1] [%]	herbicidal effect in percent, AVEFA [1] [%]	herbicidal effect in percent, ECHCG [1] [%]	herbicidal effect in percent, LOLMU [1] [%]	herbicidal effect in percent, SETVI [1] [%]	herbicidal effect in percent, VIOTR ([1]; VIOTR = Viola tricolor) [%]	pest or weed control at 80 g/ha (SETVI) [%]
Cc1cc(C)c(C2C(=O)C3CC(C4OCCO4)CC3C2=O)c(C)c1 (mixture of isomers) [I-a-30]	90	90	90	–	–	–	–	–	–	–	–	–
Cc1cc(C)c(C2C(=O)C3CC(C=NOC(C)C)CC3C2=O)c(C)c1 (mixture of isomers) [I-a-31]	100	90	90	80	90	–	–	–	–	–	–	–
Cc1cc(C)c(C2C(=O)C3CC(C4OCCCO4)CC3C2=O)c(C)c1 (mixture of isomers) [I-a-32]	90	90	80	–	–	–	–	–	–	–	–	–
CCc1cc(C)cc(CC)c1C1C(=O)C2CC(C(C)=O)CC2C1=O (mixture of isomers) [I-a-33]	90	100	100	100	100	–	–	–	–	–	–	–
CCc1cc(C)cc(CC)c1C1C(=O)C2CC(C(C)=NOC)CC2C1=O (mixture of isomers) [I-a-34]	90	100	100	–	100	–	–	–	–	–	–	–
CCc1cc(C)cc(CC)c1C1C(=O)C2CC(C(C)O)CC2C1=O (mixture of isomers) [I-a-41]	100	100	100	100	100	–	–	–	–	–	–	–
CCc1cc(C)cc(CC)c1C1C(=O)C2CC(CSC)CC2C1=O (mixture of isomers) [I-a-60]	90	90	100	90	90	–	–	–	–	–	–	–
CCc1cc(C)cc(CC)c1C1=C(OCc2ccccc2)C2CC(CBr)CC2C1=O (mixture of isomers) [I-a-61]	90	90	90	–	–	–	–	–	–	–	–	–
CCOC(=O)CC1CC2C(=O)C(c3c(CC)cc(C)cc3CC)=C(OCC)C2C1 (mixture of isomers) [I-a-81]	90	80	80	–	80	–	–	–	–	–	–	–
CCc1cc(C)cc(CC)c1C1=C(OC(=O)C(C)(C)C)C2CC(C3OCCCO3)CC2C1=O (mixture of isomers) [I-b-3]	–	100	100	–	100	100	90	100	100	100	90	–
CCc1cc(C)cc(CC)c1C1=C(OC(=O)C(C)C)C2CC(COC(C)=O)CC2C1=O (mixture of isomers) [I-b-23]	90	90	100	90	80	–	–	–	–	–	–	–
CCc1cc(C)cc(CC)c1C1=C(OC(=O)OC(C)C)C2CC(C=NOC)CC2C1=O (mixture of isomers) [I-c-14]	100	100	100	100	100	–	–	–	–	–	–	–
CCOC(=O)OC1=C(c2c(CC)cc(C)cc2CC)C(=O)C2CC(COC(C)=O)CC12 (mixture of isomers) [I-c-15]	80	90	90	–	–	–	–	–	–	–	–	–
CCOC(=O)CC1CC2C(=O)C(c3c(CC)cc(C)cc3CC)=C(OC(=O)OCC)C2C1 (mixture of isomers) [I-c-16]	80	–	80	–	–	–	–	–	–	–	–	–
CCOC(=O)OC1=C(c2c(CC)cc(C)cc2CC)C(=O)C2CC(C(C)=O)CC12 (mixture of isomers) [I-c-17]	80	100	90	90	90	–	–	–	–	–	–	–
CCOC(=O)OC1=C(c2c(CC)cc(C)cc2CC)C(=O)C2CC(C(C)=NOC)CC12 (mixture of isomers) [I-c-18]	–	100	90	80	100	–	–	–	–	–	–	–
CCOC(=O)OC1=C(c2c(CC)cc(C)cc2CC)C(=O)C2CC(CCC#N)CC12 (mixture of isomers) [I-c-21]	90	100	100	100	–	–	–	–	–	–	–	–
CCOC(=O)OC1=C(c2c(CC)cc(C)cc2CC)C(=O)C2CC(CCC(C)=NOC)CC12 (mixture of isomers) [I-c-24]	100	100	100	80	90	–	–	–	–	–	–	–
CCc1cc(C)cc(CC)c1C1C(=O)C2CC(CCC(C)=NOC)CC2C1=O (racemic) [I-a-42, 2-(2,6-diethyl-4-methylphenyl)-5-[3-methoxyiminobutyl]-tetrahydropentalene-1,3-dione]	–	100	100	100	90	–	–	–	–	–	–	100
CCc1cc(C)cc(CC)c1C1C(=O)C2CC(CCC(C)=O)CC2C1=O (centres unmarked) [I-a-39, 2-(2,6-diethyl-4-methylphenyl)-5-(3-oxobutyl)-tetrahydropentalene-1,3-dione]	–	100	100	–	100	–	–	–	–	–	–	100
CCc1cc(C)cc(CC)c1C1C(=O)C2CC(C=O)CC2C1OC(=O)C(C)(C)C (centres unmarked) [I-b-2, 2-(2,6-diethyl-4-methylphenyl)-5-formyl-3-oxooctahydropentalen-1-yl 2,2-dimethylpropanoate]	–	–	100	–	–	80	80	100	100	90	–	100
